# Target: T1, Trypanothione reductase (TR) (Leishmania donovani, UniProt P39050)
# T1 construct: gene TPR; native enzyme in cell extracts of L. donovani axenic amastigotes
# Test: DTNB-coupled colorimetric TR activity assay ([…] nm) in L. donovani cell extract; Lineweaver-Burk analysis
# Assay type: biochemical
# T1 sequence (P39050 whole entry): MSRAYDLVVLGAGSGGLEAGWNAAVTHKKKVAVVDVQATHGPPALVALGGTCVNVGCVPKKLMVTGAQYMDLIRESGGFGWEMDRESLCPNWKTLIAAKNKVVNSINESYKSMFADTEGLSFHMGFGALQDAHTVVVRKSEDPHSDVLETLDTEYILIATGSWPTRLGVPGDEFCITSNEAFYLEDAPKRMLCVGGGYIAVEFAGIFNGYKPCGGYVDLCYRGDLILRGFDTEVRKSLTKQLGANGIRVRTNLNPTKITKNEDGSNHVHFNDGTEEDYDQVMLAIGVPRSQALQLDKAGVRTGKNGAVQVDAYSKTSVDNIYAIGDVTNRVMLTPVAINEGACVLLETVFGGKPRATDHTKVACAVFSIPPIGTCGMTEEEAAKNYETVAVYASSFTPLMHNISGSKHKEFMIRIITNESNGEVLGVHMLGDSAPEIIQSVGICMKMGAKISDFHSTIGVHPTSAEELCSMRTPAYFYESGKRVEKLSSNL
smiles,measurement,value
"CSCC1CN(/N=C/c2ccc([N+](=O)[O-])o2)C(=O)O1 (stereo not shown) [NFT, nifuratel]",Ki,3.15 ± 0.5 µM
